Article PMC9645637 (PLOS ONE, 2022)
Like-named read-outs stand apart in the source and are kept apart here.

How the values were obtained:
[1] = test system: An. funestus AChE; assay: AChE assay (modified Ellman assay), mosquito homogenate; format: biochemical; settings: read-out: Anopheles AChE inhibition IC50 ± SE (95% confidence interval range)
Experimental: (§1) Mosquitoes from the four Anopheles colonies were separately homogenized in Na2HPO4, 1% Triton X-100 (pH 8.0) and used as an enzyme source. Protein content was assessed using the standard Lowry protein assay. The incubation mixture in a 96-well plate consisted of 20 μl of the enzyme in 132 μL of the assay buffer (Na2HPO4, 1% Triton X-100; pH 8.0). […] Ellman’s reagent, 5,5′-dithiobis(2-nitrobenzoic acid) (DTNB), was freshly prepared in sodium phosphate buffer (dibasic; pH 7.0) and 8 μL (0.2 mM) added to the incubation mixture. To initiate the reaction, 20 μL (1 mM) of the AChE substrate, acetylthiocholine iodide was added making a total volume of 200 μL in each well and the absorbance readings were obtained using the UV-Visible spectrophotometer at 412 nm. Propoxur was kept as a positive control on the basis of having both AChE and larvicidal activities, while DMSO was used as a negative control. […] However, the insecticide propoxur was also assessed against this target to determine AChE selectivity between electric eel and Anopheles and subsequent comparison with the test compounds.
(§2) All in vitro and in vivo assays were performed in triplicate.

[2] = biological target: An. arabiensis AChE (Anopheles gambiae, UniProt Q869C3); assay: as above; format: biochemical
Experimental: as §1, §2

[3] = biological target: T1, An. gambiae AChE (Anopheles gambiae, UniProt Q869C3); assay: as above; format: biochemical
T1 construct: Mosquitoes from the four Anopheles colonies were separately homogenized in Na2HPO4, 1% Triton X-100 (pH 8.0) and used as an enzyme source; from tissue; host or cells: whole mosquito homogenate (An. gambiae colony)
Experimental: as §1, §2

[4] = biological target: electric eel AChE (Electrophorus electricus, UniProt O42275); assay: AChE assay (modified Ellman assay), electric eel AChE; format: biochemical
Experimental: as §1, §2

[5] = test system: An. coluzzii (G3) larvae; assay: Larvicidal assay (WHO bioassay for mosquito larvicides); settings: read-out: Larvicidal LC50 (95% confidence interval range); An. coluzzii (G3) third-instar larvae
Excerpt: (§3) The laboratory-reared colonies of An. funestus (FUMOZ), An. arabiensis (KWAG), An. gambiae (COGS) and An. coluzzii (G3) were used for larvicidal and AChE screening assays. These are common Anopheles species responsible for malaria transmission in Africa. These colonies were maintained under standard insectary conditions as reported by Hunt et al. and Zengenene et al.. FUMOZ was first collected from Mozambique in 2000 and has a low-level intensity of pyrethroid and carbamate resistance. KWAG was collected from KwaZulu-Natal (South Africa) in 2005 and has shown resistance to pyrethroids and the organochloride, dichloro-diphenyl-trichloroethane (DDT).
(§4) The incubation mixture was performed in a total volume of 250 mL of deionized water under 27°C and humidity ≥78%. The test compounds were dissolved in DMSO and assessed for larvicidal activity at 10 times increasing concentrations from 0.0005 μM to 500 μM. Propoxur, a standard larvicide and an AChE agent, was used as a positive control, while DMSO was employed for the negative vehicle control. Larval mortality was recorded in 24, 48 and 72 hours and larvae were fed with protein dog food at day 0 and after every mortality counting.
as §2

[6] = test system: An. gambiae (COGS) larvae; assay: as above; settings: Anopheles gambiae, read-out: Larvicidal LC50 (95% confidence interval range)
Excerpt: as §3, §4, §2

[7] = test system: An. arabiensis (KWAG) larvae; assay: as above; settings: for LC50: Anopheles arabiensis, read-out: Larvicidal LC50 (95% confidence interval range)
Excerpt: as §3, §4, §2

[8] = test system: An. funestus (FUMOZ) larvae; assay: as above; settings: read-out: Larvicidal LC50 (95% confidence interval range); An. funestus (FUMOZ) third-instar larvae
Excerpt: as §3, §4, §2

[9] = test system: Artemia franciscana; settings: read-out: Brine shrimp LC50 (95% confidence interval); Artemia franciscana nauplii, 24 h
Experimental: as §2

[10] = An. arabiensis homogenate, read-out: Anopheles AChE inhibition IC50 ± SE (95% confidence interval range)
[11] = An. gambiae homogenate, read-out: Anopheles AChE inhibition IC50 ± SE (95% confidence interval range)
[12] = read-out: Electric eel AChE inhibition IC50 ± SE (95% confidence interval range)

Sequence of electric eel AChE (O42275 24-633): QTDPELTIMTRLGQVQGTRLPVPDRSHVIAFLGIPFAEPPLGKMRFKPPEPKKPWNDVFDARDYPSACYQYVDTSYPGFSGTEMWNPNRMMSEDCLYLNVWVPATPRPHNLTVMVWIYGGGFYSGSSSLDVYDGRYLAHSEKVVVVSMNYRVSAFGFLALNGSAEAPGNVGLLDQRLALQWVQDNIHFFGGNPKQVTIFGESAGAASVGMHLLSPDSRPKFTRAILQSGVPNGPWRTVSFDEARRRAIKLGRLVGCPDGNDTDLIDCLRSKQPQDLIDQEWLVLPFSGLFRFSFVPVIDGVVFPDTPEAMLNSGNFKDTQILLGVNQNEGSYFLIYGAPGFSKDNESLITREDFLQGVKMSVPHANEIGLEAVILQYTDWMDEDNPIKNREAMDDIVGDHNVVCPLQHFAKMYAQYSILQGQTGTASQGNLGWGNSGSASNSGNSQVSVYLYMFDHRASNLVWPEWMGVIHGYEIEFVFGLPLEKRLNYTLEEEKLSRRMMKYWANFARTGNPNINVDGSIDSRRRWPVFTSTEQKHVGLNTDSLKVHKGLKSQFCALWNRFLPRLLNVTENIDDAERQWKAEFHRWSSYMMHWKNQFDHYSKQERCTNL
Sequence of An. arabiensis AChE (Q869C3 162-698 limits assumed): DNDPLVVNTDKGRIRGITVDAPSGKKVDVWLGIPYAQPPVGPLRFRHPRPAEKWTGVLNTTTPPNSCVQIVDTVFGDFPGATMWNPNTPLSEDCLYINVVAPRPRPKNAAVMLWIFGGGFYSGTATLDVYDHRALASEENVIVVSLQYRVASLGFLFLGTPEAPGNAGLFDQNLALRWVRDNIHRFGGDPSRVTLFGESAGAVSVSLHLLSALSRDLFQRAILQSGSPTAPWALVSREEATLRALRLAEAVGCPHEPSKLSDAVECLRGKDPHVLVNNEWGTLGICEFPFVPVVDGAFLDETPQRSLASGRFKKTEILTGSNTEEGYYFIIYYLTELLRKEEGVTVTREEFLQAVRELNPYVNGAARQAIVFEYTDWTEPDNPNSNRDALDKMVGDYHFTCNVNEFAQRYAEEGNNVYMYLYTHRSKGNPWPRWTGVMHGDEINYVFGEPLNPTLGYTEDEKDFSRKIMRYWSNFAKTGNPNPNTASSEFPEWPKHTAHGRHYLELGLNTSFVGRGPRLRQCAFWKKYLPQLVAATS
T1 sequence (Q869C3 39-737): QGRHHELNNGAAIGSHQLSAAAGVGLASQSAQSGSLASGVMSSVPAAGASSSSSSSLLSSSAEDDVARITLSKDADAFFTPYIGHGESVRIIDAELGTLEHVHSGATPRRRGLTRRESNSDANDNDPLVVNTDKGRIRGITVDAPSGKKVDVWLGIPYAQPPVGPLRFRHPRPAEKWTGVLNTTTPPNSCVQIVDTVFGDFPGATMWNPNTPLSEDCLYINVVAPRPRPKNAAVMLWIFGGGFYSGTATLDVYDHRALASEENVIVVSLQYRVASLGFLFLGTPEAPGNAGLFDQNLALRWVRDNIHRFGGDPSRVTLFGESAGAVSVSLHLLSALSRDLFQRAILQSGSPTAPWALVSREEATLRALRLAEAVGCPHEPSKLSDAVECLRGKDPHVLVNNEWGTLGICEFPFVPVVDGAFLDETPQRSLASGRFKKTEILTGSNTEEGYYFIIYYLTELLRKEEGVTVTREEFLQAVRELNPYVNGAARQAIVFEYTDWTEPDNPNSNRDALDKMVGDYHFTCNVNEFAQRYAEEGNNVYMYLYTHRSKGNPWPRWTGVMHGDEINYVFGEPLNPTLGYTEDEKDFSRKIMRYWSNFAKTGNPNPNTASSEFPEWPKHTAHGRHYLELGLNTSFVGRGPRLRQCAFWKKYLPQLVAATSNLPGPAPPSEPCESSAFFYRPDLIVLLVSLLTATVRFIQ

| Structure (SMILES) | IC50 [1] | IC50 [2] | IC50 [3] | IC50 [4] | LC50 [5] | LC50 [6] | LC50 [7] | LC50 [8] | IC50 [2, 10] | IC50 [3, 11] | IC50 [4, 12] | Fold more potent than propoxur for An. arabiensis larval toxicity ([7]; LC50 ratio versus propoxur) | LC50 [9] |
| --- | --- | --- | --- | --- | --- | --- | --- | --- | --- | --- | --- | --- | --- |
| CNC(=O)Oc1ccccc1OC(C)C [Propoxur, propoxur, reference compound] | 0.89 ± 0.2 µM | 0.78 ± 0.16 µM | 26.1 ± 6.21 µM | 1.28 ± 0.35 µM | 62.7 µM | 64 µM | 8.77 µM | 9.9 µM |  |  |  |  |  |
| O=C(NCCN1CCOCC1)C1CCN(Cc2ccccc2)CC1 [derivative 1, 1-benzyl-N-(2-morpholinoethyl) piperidine-4-carboxamide] | > 100 µM |  |  |  | > 100 µM | > 100 µM | > 100 µM | 2.65 µM | > 100 µM | 48.9 ± 10.5 µM | > 100 µM |  |  |
| O=C(Nc1nccs1)C1CCN(Cc2ccccc2)CC1 [derivative 2, 1-benzyl-N-(thiazol-2-yl) piperidine-4-carboxamide] | > 100 µM |  |  |  | > 100 µM | > 100 µM | 0.88 µM | > 100 µM | 6.05 ± 2.21 µM | > 100 µM | 55.7 ± 12 µM | about 10 fold |  |
| COc1cc(CCNC(=O)C2CCN(Cc3ccccc3)CC2)cc(OC)c1OC [derivative 3, 1-benzyl-N-(3,4,5-trimethoxyphenethyl) piperidine-4-carboxamide] |  |  |  |  | > 100 µM | > 100 µM | > 100 µM | > 100 µM |  |  |  |  |  |
| O=C(NCc1cccnc1)C1CCN(Cc2ccccc2)CC1 [derivative 4, 1-benzyl-N-(pyridine-3-ylmethyl) piperidine-4-carboxamide] |  |  |  |  | > 100 µM | > 100 µM | > 100 µM | > 100 µM |  |  |  |  |  |
| O=C(NCc1ccco1)C1CCN(Cc2ccccc2)CC1 [derivative 5, 1-benzyl-N-(furan-2-ylmethyl) piperidine-4-carboxamide] | > 100 µM |  |  |  | > 100 µM | > 100 µM | > 100 µM | 2.96 µM | > 100 µM | 31.4 ± 7.56 µM | > 100 µM |  |  |
| O=C(NCCc1c[nH]cn1)C1CCN(Cc2ccccc2)CC1 [derivative 6, N-[2-(1H-imidazol-4-yl)ethyl]-1-benzylpiperidine-4-carboxamide] |  |  |  |  | > 100 µM | > 100 µM | > 100 µM | > 100 µM |  |  |  |  |  |
| O=C(NC1CCCc2ccccc21)C1CCN(Cc2ccccc2)CC1 (centres unmarked) [derivative 7, 1-benzyl-N-(1,2,3,4-tetrahydro-naphthalen-1-yl) piperidine-4-carboxamide] |  |  |  |  | > 100 µM | > 100 µM | > 100 µM | > 100 µM |  |  |  |  |  |
| O=C(NCCN1CCCCC1)C1CCN(Cc2ccccc2)CC1 [derivative 8, 1-benzyl-N-(2-(piperidin-1-yl)ethyl)piperidine-4-carboxamide] | > 100 µM |  |  |  | > 100 µM | > 100 µM | > 100 µM | 0.8 µM | > 100 µM | 28.1 ± 6.89 µM | 88.3 ± 19.9 µM |  |  |
| O=C(NCc1ccncc1)C1CCN(Cc2ccccc2)CC1 [derivative 9, 1-benzyl-N-(pyridine-4-ylmethyl) piperidine-4-carboxamide] |  |  |  |  | > 100 µM | > 100 µM | > 100 µM | > 100 µM |  |  |  |  |  |
| [K+].[K+].[O]=[Cr](=[O])([O-])[O][Cr](=[O])(=[O])[O-] [potassium dichromate] |  |  |  |  |  |  |  |  |  |  |  |  | 0.004 µM |
